Assay [1] relates to growing pigs. Nature of the assay: Longissimus lumborum muscle fiber distribution and succinate dehydrogenase staining (Example III). Type of assay: in vivo, pig. The conditions noted are these: 30 mg/kg BW, 7 days; numerical. The protocol: (§1) Nine growing pigs were blocked by bodyweight (BW) and placed in metabolism crates. After a 3-day acclimation period, pigs within each BW block were randomly assigned to a treatment (n=3 pigs/treatment). Treatments comprised pigs supplemented 0, 15, or 30 mg/kg BW NR for 7 days. Pigs were allowed ad libitum access to a standard growing diet and water. Treatments were administered daily at 8 a.m. by mixing NR in 20 mL of Karo® dark syrup and orally drenching the pigs. On day 0 and 3 of the trial, muscle biopsies of the LL were taken for NAD+ analysis using standard procedures. At day 7, pigs were transported to the Kansas State University Meats Laboratory and euthanized by a captive penetrating bolt to the brain, followed by exsanguination. Following harvest procedures, 3 g of the LL were collected for NAD+ analysis. Twenty-four hours after harvest, the whole LL not sampled at harvest was removed from the carcass and aged 10 days. After aging, the LL was cut into 6 chops for retail color stability analysis, including 6-day surface oxy- and metmyoglobin percentage, 6-day objective and subjective color panel evaluation, and day 4 and 6 metmyoglobin reducing ability (MRA).

Assay [2] concerns growing pigs. Nature of the assay: Longissimus lumborum NAD+ content (Example III). Type of assay: in vivo, pig. How it is done: as §1
The test system of assay [3] is Fertilized Cobb 500 broiler eggs. Nature of the assay: Pectoralis major succinate dehydrogenase staining intensity (second Example VI). Type of assay: in vivo, chicken. The conditions noted are these: 250, 500 or 1,000 mM NR; hatched chicks. The protocol:
The methods of Noel et al. (2016) were followed for succinate dehydrogenase (SDH) staining. Slides were incubated at 37° C. for 1 h in a prewarmed incubation solution containing nitro blue tetrazolium solution, phosphate buffer, and sodium succinate solution. After washing in ultrapure water 3 times for 1 min each, 5 μL of 9:1 glycerol in PBS was placed on each cryosection and they were coverslipped for imaging. All cryosections were imaged at 200× magnification using a Nikon Eclipse TI-U inverted microscope (Nikon Instruments Inc., Melville, N.Y.). Immunohistochemistry photomicrographs were collected with a DS-QiMC digital camera (Nikon Instruments Inc.) and SDH cryosections were collected with a Nikon DS-Fil color digital camera (Nikon Instruments Inc.) White light intensity was kept constant for SDH photomicrographs. All photomicrograph collection and image analyses were conducted using NIS Elements Basic Software (Nikon Instruments Inc.). Cross-sectional area (CSA) of a minimum of 1,000 muscle fibers per chick was determined as the area within the dystrophin border. The number of satellite cell was determined as nuclei co-staining for Pax 7 and Hoechst dye located at the periphery of muscle fiber. A minimum of 50 muscle fiber bundles per chick were analyzed for SDH mean intensity using the same software. […]

For assay [4] the test system is unchanged. Nature of the assay: Cyclin D mRNA expression by real-time PCR (second Example VI). Type of assay: in vivo, chicken. The conditions noted are these: 250, 500 mM or 1 M NR; hatched chicks. The protocol:
The methods of Burnett et al. (2016) were followed with minor modifications. Briefly, nucleic acids were extracted and purified from 200 mg of the left biceps femoris muscle using Trizol (Life Technologies), followed by subjecting the nucleic acids to PureLink™ RNA
Mini Kit (Life Technologies, Carlsbad, Calif.). Total RNA concentration and 260 nm/280 nm ratio were quantified and extractions yielding RNA with a ratio greater than 1.9 were used for real-time PCR analysis. Trace genomic DNA contamination and reverse transcription were conducted on 50 ng of total RNA using a High-Capacity cDNA Reverse Transcription Kit (Life Technologies). Gene specific primers were designed, efficiencies determined, and validated for qPCR (Table 7). Complementary DNA was amplified in duplicate for each sample using PerfeCTa SYBR Green FastMix (Quanta Biosciences, Gaithersburg, Md.) and the appropriate gene specific forward and reverse primers (20 pM) in an Eppendorff Mastercycler realplex2 S PCR System (Eppendorf North America, Hauppauge, N.Y.). Thermal cycling parameters were initial heating at 50° C. for 2 min, denaturing at 95° C. for 10 min, 50 cycles of 15 s at 95.0° C., annealing at 60.5° C. for 30 s, and extension for 20 s at 68.0° C. A final dissociation step was included at 95° C. for 15 s, 60° C. for 30 s, and 95° C. for 15 s. Expression was normalized to 18S ribosomal RNA expression (ΔCt, where Ct refers to the threshold cycle), and calibrated to control chick (0 mM) mRNA expression (ΔΔCt). Gene fold change expression levels were calculated as 2^−ΔΔCt as previously described by Livak and Schmittgen (2001).

Marks after values point to notes of the source that are not given here.

As to `NC(=O)c1ccc[n+]([C@@H]2O[C@H](CO)[C@@H](O)[C@H]2O)c1` [Nicotinamide riboside, nicotinamide riboside], in the assay with growing pigs [1], the “Muscle fiber distribution vs 0 mg/kg LL” value was “less type 2B (glycolytic) fibers and more type 1 and 2A (oxidative) fibers”; the “Succinate dehydrogenase staining in type 2B fibers vs other two treatments” value was “more intense staining”. Besides, in the assay on growing pigs [2] (15 mg/kg), the “Day 3 NAD+ change, percent change” value was 28.55^b,x Percent; the “Day 3 NAD+ change, total” value is listed as 2.10^b pMol/g tissue; the “Day 7 NAD+ change, percent change” value is 35.29^b,x Percent; the “Day 7 NAD+ change, total” value is 2.72^b pMol/g tissue. The “NAD+” value with growing pigs [2] (15 mg/kg group, Day 0 (before supplementation)) is given as 7.70 pMol/g tissue. For the same compound, the “NAD+” value with growing pigs [2] (15 mg/kg, Day 7) is reported as 10.42 pMol/g tissue. For the same compound, in the assay with growing pigs [2] (15 mg/kg, middle column group (Day 3, head not given)), the “NAD+” value was 9.80 pMol/g tissue. Moreover, in the assay on growing pigs [2] (30 mg/kg), the “Day 3 NAD+ change, percent change” value is recorded as 6.43^a,b,y Percent; the “Day 3 NAD+ change, total” value was 0.71^a,b,y pMol/g tissue; the “Day 7 NAD+ change, percent change” value was 10.92^a,b,y Percent; the “Day 7 NAD+ change, total” value is 0.93^a,b,y pMol/g tissue. Further, the “NAD+” value in the assay with growing pigs [2] (30 mg/kg group, Day 0 (before supplementation)) is 8.60 pMol/g tissue. In addition, the “NAD+” value in the assay on growing pigs [2] (30 mg/kg, Day 7) is reported as 9.53 pMol/g tissue. In addition, the “NAD+” value in the assay with growing pigs [2] (30 mg/kg, middle column group (Day 3, head not given)) is listed as 9.31 pMol/g tissue. In assay [3], the SDH staining intensity result is reported as “no treatment effect”. Moreover, in assay [4], the “Cyclin D1 and 2 mRNA expression” value is listed as “no treatment effects”; the “Cyclin D3 mRNA expression, control vs all NR treatments” value is given as “Control chicks had greater cyclin D3 expression”; the “Greater cyclin D3 mRNA expression of control chicks than NR chicks (average)” value is listed as 38%.
